Test system: 317291-083-R-J1-PDC complex spheroid growth
Experiment: Anticancer human tumor 317291-083-R-J1-PDC patient-derived soft tissue sarcoma cell line growth inhibition [Asc]
Conditions: for IC50: curve of first compound; for viability, T/C: stronger effect = lower value
Description: Multicellular complex tumor spheroid response to apoptosis pathway targeting inhibitors Alrizomadlin, Pelcitoclax, and Dasminapant in combination with a variety of drugs and investigational agents in selected tumor cell lines
The MDM2 inhibitor alrizomadlin, the Bcl-2/Bcl-xL inhibitor pelcitoclax, and the IAPs inhibitor dasminapant were evaluated both individually and in combination with standard of care and investigational anticancer small molecules within a complex spheroid model of solid tumors. . Complex spheroids include a stromal component modeled by human endothelial cells (HUVEC) and fibroblasts modeled by human mesenchymal stem cells (MSCs). The concentration ranges selected for each drug and investigational agent were based upon clinically achievable concentrations if the clinical Cmax of the agent was known.
Compounds. The drugs and investigational agents: alrizomadlin (APG-115; NSC831270), pelcitoclax (APG-1252; NSC835773), dasminapant (APG-1387;NSC834197), TAK-243 (NSC785004), copanlisib (NSC809693), olaparib (NSC753686), talazoparib (NSC767125), cobimetinib (NSC 768068), eltanexor (KPT-8602, NSC 794443), abemaciclib (NSC 768073), sotorasib (NSC818433), adagrasib (NSC 831453), MRTX-1133 (NSC 836407), Iadademestat (ORY1001, NSC 806812), and RMC-4630 (NSC839698), were obtained from the NCI Developmental Therapeutics Program Chemical Repository. The FDA-approved anticancer drug set is available from the Developmental Therapeutics Program at https://dtp.cancer.gov/organization/dscb/obtaining/available plates.htm. […] The stock solutions were prepared in dimethyl sulfoxide (DMSO, Sigma-Aldrich, St. Louis, MO, cat. D2650) at 800-fold the tested concentration and stored at -70 degrees C prior to their use. All drugs and investigational agents were tested over a range starting from a high concentration at or near the clinical Cmax and decreasing in half-log increments. If the clinical Cmax for an agent had not been determined, the highest concentration tested was 10 microM.
The patient-derived cancer (PDC) cell lines include five colon adenocarcinomas: 186277-243-T-J2-PDC, 616215-338-R-J1-PDC, 439559-082-T-J2-PDC, 463943-066-T-J2-PDC, and 519858-162-T-J1-PDC; three pancreatic carcinomas: 323965-272-R-J2-PDC, 521955-158-R6-J3-PDC, and 521955-158-R2-J5-PDC; two uterine sarcomas: 327498-152-R-J2-PDC and 993429-296-R-J1-PDC; two rhabdomyosarcomas: 755483-174-R-J1-PDC and 772245-204-R-J1-PDC; two soft tissue sarcomas: 126254-015-R-J1-PDC and 494315-158-R-J1-PDC; two malignant fibrous histiocytomas: 317291-083-R-J1-PDC and 596521-263-R-J1-PDC; two breast carcinomas: 171881-019-R-J1-PDC and 885512-296-R-J2-PDC; and one ovarian carcinoma: 6556581-035-R-J-PDC were obtained from the NCI PDMR, (https://pdmr.cancer.gov). The established cell lines HSSY-2 synovial sarcoma (RRID:CVCL 8719), SYO-1 synovial sarcoma (RRID:CVCL_7146), MPNST malignant peripheral neural sheath tumor were obtained from the Sloan Kettering Institute. The following established cell lines were purchased from the American Type Culture Collection (ATCC, Manassas, VA), Sor the received from the NCI repository:, PANC-1 pancreatic carcinoma (CRL-1469, RRID:CVCL_0480), OVCAR-5 ovarian carcinoma (RRID:CVCL_1628), OVCAR-8 ovarian carcinoma (RRID:CVCL_1629), , MCF-7 breast carcinoma (CRL-12584, RRID:CVCL_0031), MDA-MB-231 breast carcinoma (CRL-12532, RRID:CVCL_0062), NCI-H1876 small cell lung carcinoma (CRL-5902, RRID:CVCL_1503), NCI-H510A small cell lung carcinoma (HTB-184, RRID:CVCL_1565), NCI-H1417 (CRL-5869, RRID:CVCL_1469), and NCI-H196 small cell lung carcinoma (CRL-5823, RRID:CVCL_1509). Dr. Peter Houghton (Greehey Children's Cancer Research Institute, University of Texas Health Science Center, San Antonio, TX) provided Rh-18 rhabdomyosarcoma (RRID:CVCL_1659). Pooled donor human umbilical vein endothelial cells (HUVEC, Lonza, cat. CC-2519) and human mesenchymal stem cells (hMSC, Lonza, cat. PT-2501) were purchased from Lonza (Walkersville, MD).
Cell Culture. […]

[1] = second compound 0.00949 µM, first compound 0.0316 µM
[2] = second compound 0.00949 µM, first compound 0.1 µM
[3] = second compound 0.03 µM, first compound 0.0316 µM
[4] = second compound 0.03 µM, first compound 0.1 µM
[5] = second compound 0.0949 µM, first compound 0.0316 µM
[6] = second compound 0.0949 µM, first compound 0.1 µM
[7] = second compound 0.3 µM, first compound 0.0316 µM
[8] = second compound 0.3 µM, first compound 0.1 µM
[9] = second compound 0.949 µM, first compound 0.0316 µM
[10] = second compound 0.949 µM, first compound 0.1 µM
[11] = second compound 3 µM, first compound 0.0316 µM
[12] = second compound 3 µM, first compound 0.1 µM
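Note: compound exposure lasted seven days after spheroids formed for three days.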
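Throughout, for viability, T/C: 100% = DMSO vehicle control wells.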

Work on `Cn1ncnc1[C@H]1c2n[nH]c(=O)c3cc(F)cc(c23)N[C@@H]1c1ccc(F)cc1` + CCN1C(C(=O)NC23CCC(C(=O)O)(CC2)CC3)C(c2cccc(Cl)c2F)C2(C(=O)Nc3cc(Cl)ccc32)C12CCCCC2 yielded an IC50 (second compound 0.00949 µM) greater than 0.1 µM, an IC50 (second compound 0.03 µM) greater than 0.1 µM and an IC50 (second compound 0.0949 µM) greater than 0.1 µM. For the same compound, the IC50 (second compound 0.3 µM) was greater than 0.1 µM, the IC50 (second compound 0.949 µM) was greater than 0.1 µM and the IC50 (second compound 3 µM) was greater than 0.1 µM. The viability, T/C (second compound 0.00949 µM, first compound 0.000316 µM) was 108%, the viability, T/C (second compound 0.00949 µM, first compound 0.001 µM) was 88.4% and the viability, T/C (second compound 0.00949 µM, first compound 0.00316 µM) was 102%. For the same compound, the viability, T/C (second compound 0.00949 µM, first compound 0.01 µM) was 100%, the viability, T/C [1] was 81.9% and the viability, T/C [2] was 66.9%. The viability, T/C (second compound 0.03 µM, first compound 0.000316 µM) was 99.6%, the viability, T/C (second compound 0.03 µM, first compound 0.001 µM) was 107% and the viability, T/C (second compound 0.03 µM, first compound 0.00316 µM) was 105%. The viability, T/C (second compound 0.03 µM, first compound 0.01 µM) was 81.3%, the viability, T/C [3] was 76.1% and the viability, T/C [4] was 87.3%. It also gave a viability, T/C (second compound 0.0949 µM, first compound 0.000316 µM) of 95.3%, a viability, T/C (second compound 0.0949 µM, first compound 0.001 µM) of 96% and a viability, T/C (second compound 0.0949 µM, first compound 0.00316 µM) of 103%. The viability, T/C (second compound 0.0949 µM, first compound 0.01 µM) was 86.3%, the viability, T/C [5] was 77.6% and the viability, T/C [6] was 70.4%. For the same compound, the viability, T/C (second compound 0.3 µM, first compound 0.000316 µM) was 106%, the viability, T/C (second compound 0.3 µM, first compound 0.001 µM) was 101% and the viability, T/C (second compound 0.3 µM, first compound 0.00316 µM) was 107%. It also gave a viability, T/C (second compound 0.3 µM, first compound 0.01 µM) of 89.5%, a viability, T/C [7] of 73.9% and a viability, T/C [8] of 64.6%. For the same compound, the viability, T/C (second compound 0.949 µM, first compound 0.000316 µM) was 95.4%, the viability, T/C (second compound 0.949 µM, first compound 0.001 µM) was 89.3% and the viability, T/C (second compound 0.949 µM, first compound 0.00316 µM) was 103%. The viability, T/C (second compound 0.949 µM, first compound 0.01 µM) was 93.6%, the viability, T/C [9] was 75.8% and the viability, T/C [10] was 72.1%. The viability, T/C (second compound 3 µM, first compound 0.000316 µM) was 82%, the viability, T/C (second compound 3 µM, first compound 0.001 µM) was 69% and the viability, T/C (second compound 3 µM, first compound 0.00316 µM) was 77.4%. For the same compound, the viability, T/C (second compound 3 µM, first compound 0.01 µM) was 79.7%, the viability, T/C [11] was 65.1% and the viability, T/C [12] was 62.7%.
In the case of `O=C(c1cc(Cc2n[nH]c(=O)c3ccccc23)ccc1F)N1CCN(C(=O)C2CC2)CC1` + CCN1C(C(=O)NC23CCC(C(=O)O)(CC2)CC3)C(c2cccc(Cl)c2F)C2(C(=O)Nc3cc(Cl)ccc32)C12CCCCC2, the IC50 (second compound 0.00949 µM) is reported as 9.4 µM, the IC50 (second compound 0.03 µM) is reported as greater than 10 µM and the IC50 (second compound 0.0949 µM) is reported as greater than 10 µM. It also gave an IC50 (second compound 0.3 µM) of 9.47 µM, an IC50 (second compound 0.949 µM) greater than 10 µM and an IC50 (second compound 3 µM) of 7.68 µM. The viability, T/C [1] was 111%, the viability, T/C [2] was 108% and the viability, T/C (second compound 0.00949 µM, first compound 0.316 µM) was 108%. The viability, T/C (second compound 0.00949 µM, first compound 1 µM) was 86.9%, the viability, T/C (second compound 0.00949 µM, first compound 3.16 µM) was 92.7% and the viability, T/C (second compound 0.00949 µM, first compound 10 µM) was 46.2%. For the same compound, the viability, T/C [3] was 110%, the viability, T/C [4] was 101% and the viability, T/C (second compound 0.03 µM, first compound 0.316 µM) was 102%. The viability, T/C (second compound 0.03 µM, first compound 1 µM) was 104%, the viability, T/C (second compound 0.03 µM, first compound 3.16 µM) was 81.7% and the viability, T/C (second compound 0.03 µM, first compound 10 µM) was 54.6%. The viability, T/C [5] was 101%, the viability, T/C [6] was 105% and the viability, T/C (second compound 0.0949 µM, first compound 0.316 µM) was 92.1%. The viability, T/C (second compound 0.0949 µM, first compound 1 µM) was 104%, the viability, T/C (second compound 0.0949 µM, first compound 3.16 µM) was 77.2% and the viability, T/C (second compound 0.0949 µM, first compound 10 µM) was 53%. It also gave a viability, T/C [7] of 116%, a viability, T/C [8] of 114% and a viability, T/C (second compound 0.3 µM, first compound 0.316 µM) of 102%. It also gave a viability, T/C (second compound 0.3 µM, first compound 1 µM) of 91.2%, a viability, T/C (second compound 0.3 µM, first compound 3.16 µM) of 93.2% and a viability, T/C (second compound 0.3 µM, first compound 10 µM) of 46.2%. It also gave a viability, T/C [9] of 107%, a viability, T/C [10] of 109% and a viability, T/C (second compound 0.949 µM, first compound 0.316 µM) of 107%. For the same compound, the viability, T/C (second compound 0.949 µM, first compound 1 µM) was 92.4%, the viability, T/C (second compound 0.949 µM, first compound 3.16 µM) was 88.9% and the viability, T/C (second compound 0.949 µM, first compound 10 µM) was 51.9%. It also gave a viability, T/C [11] of 88.2%, a viability, T/C [12] of 85.3% and a viability, T/C (second compound 3 µM, first compound 0.316 µM) of 81.1%. It also gave a viability, T/C (second compound 3 µM, first compound 1 µM) of 83.3%, a viability, T/C (second compound 3 µM, first compound 3.16 µM) of 77.1% and a viability, T/C (second compound 3 µM, first compound 10 µM) of 41.8%.
